Test results reported in article doi:10.1101/471615v1 (biorxiv, 2018).

Assays:
Test in all cases: biochemical
EphB6 = biological target: T1, EphB6 (Homo sapiens, UniProt O15197)
T1 sequence (O15197 1-1021): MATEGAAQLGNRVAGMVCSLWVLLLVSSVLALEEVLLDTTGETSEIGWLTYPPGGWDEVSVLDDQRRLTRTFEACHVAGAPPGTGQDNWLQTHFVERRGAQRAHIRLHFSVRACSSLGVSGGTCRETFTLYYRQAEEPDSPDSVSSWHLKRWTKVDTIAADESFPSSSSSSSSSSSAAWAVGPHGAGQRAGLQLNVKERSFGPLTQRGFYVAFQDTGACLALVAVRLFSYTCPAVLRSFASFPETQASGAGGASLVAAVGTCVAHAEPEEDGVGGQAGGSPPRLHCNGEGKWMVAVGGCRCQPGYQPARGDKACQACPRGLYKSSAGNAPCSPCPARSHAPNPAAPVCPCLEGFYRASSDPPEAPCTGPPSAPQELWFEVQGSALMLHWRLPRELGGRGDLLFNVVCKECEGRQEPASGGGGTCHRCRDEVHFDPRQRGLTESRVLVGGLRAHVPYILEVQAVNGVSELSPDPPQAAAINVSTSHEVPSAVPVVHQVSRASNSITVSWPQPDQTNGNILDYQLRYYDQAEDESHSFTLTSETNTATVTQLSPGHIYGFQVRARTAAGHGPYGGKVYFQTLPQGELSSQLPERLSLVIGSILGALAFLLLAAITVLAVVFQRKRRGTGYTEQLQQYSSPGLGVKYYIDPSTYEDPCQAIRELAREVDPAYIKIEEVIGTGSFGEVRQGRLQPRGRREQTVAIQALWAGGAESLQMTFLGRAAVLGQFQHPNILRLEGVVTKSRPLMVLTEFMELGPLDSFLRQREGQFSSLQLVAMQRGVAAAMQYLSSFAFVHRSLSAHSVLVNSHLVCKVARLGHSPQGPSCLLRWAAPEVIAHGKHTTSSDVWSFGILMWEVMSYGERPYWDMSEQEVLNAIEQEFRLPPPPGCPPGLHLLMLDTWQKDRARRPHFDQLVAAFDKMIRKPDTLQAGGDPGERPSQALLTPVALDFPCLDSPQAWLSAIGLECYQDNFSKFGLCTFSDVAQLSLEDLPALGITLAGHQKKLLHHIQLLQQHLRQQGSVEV

LCK = LCK (Homo sapiens, UniProt P06239)
Chain of LCK (P06239 whole entry): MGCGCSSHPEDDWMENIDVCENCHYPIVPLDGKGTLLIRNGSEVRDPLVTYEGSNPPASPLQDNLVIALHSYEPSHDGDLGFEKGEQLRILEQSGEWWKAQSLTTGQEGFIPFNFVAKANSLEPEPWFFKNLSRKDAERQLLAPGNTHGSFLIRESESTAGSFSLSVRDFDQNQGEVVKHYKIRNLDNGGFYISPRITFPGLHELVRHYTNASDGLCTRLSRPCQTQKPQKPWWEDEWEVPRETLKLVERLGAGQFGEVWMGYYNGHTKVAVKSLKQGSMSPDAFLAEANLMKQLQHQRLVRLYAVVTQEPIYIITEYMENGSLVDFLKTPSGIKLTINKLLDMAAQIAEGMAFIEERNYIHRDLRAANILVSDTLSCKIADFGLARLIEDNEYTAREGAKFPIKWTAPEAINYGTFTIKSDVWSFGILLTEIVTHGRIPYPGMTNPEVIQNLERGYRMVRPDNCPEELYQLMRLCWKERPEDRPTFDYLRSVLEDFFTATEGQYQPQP

BMPR1B = BMPR1B (Homo sapiens, UniProt O00238)
Chain of BMPR1B (O00238 whole entry): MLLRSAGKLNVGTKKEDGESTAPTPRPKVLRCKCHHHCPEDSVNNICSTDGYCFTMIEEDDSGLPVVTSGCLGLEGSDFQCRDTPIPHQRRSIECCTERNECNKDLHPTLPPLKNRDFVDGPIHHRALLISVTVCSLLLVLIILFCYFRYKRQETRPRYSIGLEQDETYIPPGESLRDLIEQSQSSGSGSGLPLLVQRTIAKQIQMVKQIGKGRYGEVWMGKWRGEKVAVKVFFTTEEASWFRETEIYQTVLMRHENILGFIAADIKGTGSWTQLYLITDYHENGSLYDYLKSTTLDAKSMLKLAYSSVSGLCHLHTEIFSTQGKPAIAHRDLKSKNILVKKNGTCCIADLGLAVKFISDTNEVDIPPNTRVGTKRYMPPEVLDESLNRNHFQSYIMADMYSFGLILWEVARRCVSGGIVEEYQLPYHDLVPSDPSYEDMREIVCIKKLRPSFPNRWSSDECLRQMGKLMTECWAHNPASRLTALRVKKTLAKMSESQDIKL

ABL1-Phos. = ABL1-Phos. (Homo sapiens, UniProt P00519)
Chain of ABL1-Phos. (P00519 whole entry): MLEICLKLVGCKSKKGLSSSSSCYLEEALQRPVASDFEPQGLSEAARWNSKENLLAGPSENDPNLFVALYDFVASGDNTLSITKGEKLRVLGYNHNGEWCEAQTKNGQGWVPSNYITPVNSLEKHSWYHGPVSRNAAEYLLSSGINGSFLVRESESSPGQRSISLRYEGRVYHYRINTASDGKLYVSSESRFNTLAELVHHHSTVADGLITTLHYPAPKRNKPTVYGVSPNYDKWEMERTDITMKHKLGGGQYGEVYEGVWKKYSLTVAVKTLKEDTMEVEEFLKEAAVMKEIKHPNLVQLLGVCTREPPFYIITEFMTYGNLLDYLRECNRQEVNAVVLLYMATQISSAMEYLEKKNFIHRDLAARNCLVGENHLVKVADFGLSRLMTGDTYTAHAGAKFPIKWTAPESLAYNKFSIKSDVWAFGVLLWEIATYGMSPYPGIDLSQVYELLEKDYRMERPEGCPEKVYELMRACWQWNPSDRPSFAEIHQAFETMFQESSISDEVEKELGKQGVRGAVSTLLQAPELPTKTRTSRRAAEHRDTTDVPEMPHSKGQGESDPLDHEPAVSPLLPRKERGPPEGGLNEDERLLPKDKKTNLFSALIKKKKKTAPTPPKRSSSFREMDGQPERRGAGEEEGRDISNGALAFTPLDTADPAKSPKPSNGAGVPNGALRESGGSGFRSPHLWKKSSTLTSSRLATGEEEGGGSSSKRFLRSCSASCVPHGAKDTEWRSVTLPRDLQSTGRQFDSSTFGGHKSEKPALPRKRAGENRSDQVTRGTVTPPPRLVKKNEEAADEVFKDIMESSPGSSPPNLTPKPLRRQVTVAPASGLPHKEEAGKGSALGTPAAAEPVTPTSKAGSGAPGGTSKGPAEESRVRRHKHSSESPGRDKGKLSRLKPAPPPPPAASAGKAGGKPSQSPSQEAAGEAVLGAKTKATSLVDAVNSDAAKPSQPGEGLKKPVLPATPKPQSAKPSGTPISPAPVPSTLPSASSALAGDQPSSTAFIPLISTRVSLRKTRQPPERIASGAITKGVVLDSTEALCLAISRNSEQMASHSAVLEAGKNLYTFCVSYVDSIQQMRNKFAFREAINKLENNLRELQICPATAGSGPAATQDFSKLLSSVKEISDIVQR

MEK5 = biological target: T2, MEK5 (Homo sapiens, UniProt Q13163)
T2 sequence (Q13163 1-448): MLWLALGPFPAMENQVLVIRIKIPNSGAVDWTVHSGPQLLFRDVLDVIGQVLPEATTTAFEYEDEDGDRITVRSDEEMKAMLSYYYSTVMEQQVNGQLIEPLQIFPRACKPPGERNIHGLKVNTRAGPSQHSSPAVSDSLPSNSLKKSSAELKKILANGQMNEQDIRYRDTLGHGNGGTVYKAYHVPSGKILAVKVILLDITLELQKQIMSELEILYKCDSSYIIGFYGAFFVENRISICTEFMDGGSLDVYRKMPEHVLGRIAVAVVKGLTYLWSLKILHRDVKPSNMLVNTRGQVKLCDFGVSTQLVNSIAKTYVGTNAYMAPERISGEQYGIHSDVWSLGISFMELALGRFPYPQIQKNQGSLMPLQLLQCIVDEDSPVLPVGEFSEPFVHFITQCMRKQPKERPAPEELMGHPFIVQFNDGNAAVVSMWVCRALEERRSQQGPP

ACVR1 = biological target: T3, ACVR1 (Homo sapiens, UniProt Q04771)
T3 sequence (Q04771 1-509): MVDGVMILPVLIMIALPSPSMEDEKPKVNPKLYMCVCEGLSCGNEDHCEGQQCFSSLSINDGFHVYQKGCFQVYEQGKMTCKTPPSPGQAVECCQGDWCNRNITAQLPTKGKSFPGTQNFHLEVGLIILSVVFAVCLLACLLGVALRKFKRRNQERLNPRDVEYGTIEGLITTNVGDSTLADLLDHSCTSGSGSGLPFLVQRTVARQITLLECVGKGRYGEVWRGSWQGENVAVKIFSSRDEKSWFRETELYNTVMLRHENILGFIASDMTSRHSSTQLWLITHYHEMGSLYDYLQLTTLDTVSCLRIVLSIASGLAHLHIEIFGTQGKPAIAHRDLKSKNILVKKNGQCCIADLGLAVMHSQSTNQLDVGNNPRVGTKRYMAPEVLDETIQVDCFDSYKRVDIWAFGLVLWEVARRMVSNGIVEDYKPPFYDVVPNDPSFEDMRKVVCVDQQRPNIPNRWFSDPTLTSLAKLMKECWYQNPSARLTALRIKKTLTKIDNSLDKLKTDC

[1] = biological target: receptor-interacting protein kinase 2, RIPK2 (Homo sapiens, UniProt O43353)
Chain of receptor-interacting protein kinase 2, RIPK2 (O43353 whole entry, the tested form may be a part): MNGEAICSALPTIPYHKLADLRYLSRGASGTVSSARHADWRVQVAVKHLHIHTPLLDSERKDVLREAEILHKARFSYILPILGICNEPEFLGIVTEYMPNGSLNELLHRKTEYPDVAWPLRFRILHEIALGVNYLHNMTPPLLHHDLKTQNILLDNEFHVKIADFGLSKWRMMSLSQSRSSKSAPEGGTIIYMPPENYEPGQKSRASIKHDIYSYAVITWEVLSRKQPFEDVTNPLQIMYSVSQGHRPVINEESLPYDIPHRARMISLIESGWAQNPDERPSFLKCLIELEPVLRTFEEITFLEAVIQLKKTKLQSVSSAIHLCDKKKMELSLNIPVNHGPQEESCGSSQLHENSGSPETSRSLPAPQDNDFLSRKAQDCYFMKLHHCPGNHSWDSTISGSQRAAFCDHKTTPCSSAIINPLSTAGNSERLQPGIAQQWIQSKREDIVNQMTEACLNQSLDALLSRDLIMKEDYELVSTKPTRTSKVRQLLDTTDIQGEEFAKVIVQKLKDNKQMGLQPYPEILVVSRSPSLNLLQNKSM

[2] = biological target: AarF domain containing kinase 3, ADCK3 (Homo sapiens, UniProt Q8NI60)
Chain of AarF domain containing kinase 3, ADCK3 (Q8NI60 163-647): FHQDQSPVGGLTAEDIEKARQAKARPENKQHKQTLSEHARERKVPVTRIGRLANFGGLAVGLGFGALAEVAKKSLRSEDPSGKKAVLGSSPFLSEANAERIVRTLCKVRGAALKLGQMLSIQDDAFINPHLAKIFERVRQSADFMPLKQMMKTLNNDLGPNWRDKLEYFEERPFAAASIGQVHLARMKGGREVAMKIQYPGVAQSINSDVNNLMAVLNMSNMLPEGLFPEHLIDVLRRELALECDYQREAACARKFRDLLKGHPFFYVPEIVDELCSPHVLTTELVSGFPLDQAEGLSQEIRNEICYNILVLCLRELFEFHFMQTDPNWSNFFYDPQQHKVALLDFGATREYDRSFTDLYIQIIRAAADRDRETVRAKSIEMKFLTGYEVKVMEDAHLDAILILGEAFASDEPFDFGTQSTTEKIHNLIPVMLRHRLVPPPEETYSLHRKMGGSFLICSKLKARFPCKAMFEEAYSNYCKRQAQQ

Measured: Kd

COc1cc(N(C)c2ccnc3ccc(C(F)(F)F)cc23)cc(OC)c1OC [compound 21, negative control (21)]
> 10 µM: all assays above
